Data from patent publication US5494932A, “Sulfonic stilbene derivatives in the treatment of viral disease” (Merrell Dow Pharmaceuticals Inc., priority 1991, dated 1996).
Where two headings read alike, the source gives them in different places.

Columns and labels:
[1] = system: HIV-1 strain RF in C8166 cells; assay: Acute HIV-1 (RF) infection of C8166 cells: syncytial and p24 antigen assays; format: cell-based, HIV-1 (human C8166 cells)
Source text: When evaluated in the human T cell line JM acutely infected with the GB8 virus, DIDS, H2 DIDS and SITS (Table I) suppressed virus-induced multinucleated giant cell formation (syncytia). […] We also examined the antiviral properties of these compounds in a second host-cell/virus system, i.e., the highly CD4+ C8166 cells infected with the Haitian strain of HIV-1, RF.
The cell lines used were the semi-mature human lymphoblastoid leukemia T cell line JM, the human T-lymphoblastoid C8166 cell line, the human cutaneous T cell lymphoma line H9 and, the human T cell transformed line MT-4. Stocks of HIV-1 strains RF and GB8 (kindly provided by Dr. Graham Farrar, Center for Applied Microbiological Research, Porton Dawn, England) were prepared from chronically infected H9 cells and acutely infected JM cells, respectively. Virus stocks consisted of cell-free growth medium (RPMI 1640 plus 10% fetal calf serum) containing freshly shed virus. Virus titres were determined by a standard plaque reduction assay.
Virus stocks (strains RF or GB8) were diluted into growth medium containing various concentrations of DIDS, H2 DIDS or SITS. The required number of cells were then immediately added and the virus allowed to absorb for 2 hours at 37° C. to give a multiplicity of infection (MOI) of 0.001 infectious units/cell. The virus-infected cells were pelleted, washed three times in phosphate buffered saline (PBS), and resuspended in fresh growth medium containing the appropriate concentrations of stilbene disulfonic acids. Cells were then distributed into 24-well culture plates (Falcon) and assayed as described below for virus infection. Alternatively, cells were first infected with HIV-1 (strains RF or GB8) for 2 hours at 37° C. at the above MOI. After extensive washing, cells were replated into fresh growth medium containing various concentrations of stilbene disulfonic acids. In the above experiments, syncytia were scored between 2 and 4 days postinfection (p.i.) in triplicate using an Olympus CK2 inverted microscope. The culture fluids were recovered between 3 and 5 days p.i., clarified by low speed centrifugation (2,000 rpm) for 5 minutes and the level of HIV-1 p24 core antigen in the supernatants was determined by p24 antigen ELISA (Coulter). The concentrations of stilbene disulfonic acids giving 50% inhibition of HIV-1 growth (IC50) were determined from the dose-response curves by linear regression analysis.

[2] = system: HIV-1 strain GB8 in JM cells; assay: Established HIV-1 (GB8) infection of JM cells, post-infection addition: syncytia and p24 antigen; format: cell-based, HIV-1 (human T cell line JM); settings: for activity at 100 µg/mL: Human immunodeficiency virus 1, 75 h
Procedure: The stilbene disulfonic acids blocked HIV-1 replication when the compounds were added within 2 hours of virus adsorption, i.e., prior to virus penetration, and the cells were cultured in the presence of the inhibitors. These compounds were next examined for antiviral activity at later stages of the infection process. At a MOI of 0.01 infectious units/cell (GB8 virus), viral glycoproteins appear at the surface of JM cells by 24 hours post-infection (p.i.) and initiate fusion with neighboring CD4^+ cells; the syncytial numbers show a good correlation with the production of cell-free virus (Tyms et al., 1990).
In post-treatent experiments, cells were first infected with HIV-1 strain RF or GB8 for 2 hours at 37° C. at a MOI of 0.01 and allowed to grow for either 24 or 43 hours before replating into fresh growth medium containing 100 μg/ml of DIDS, H2 DIDS or SITS. Syncytia were then scored at 52 and 68 hours p.i. in triplicate, and p24 viral core antigen in culture fluids were assayed at 75 hours p.i. as described above.
Protocol: JM cells were infected with HIV at a multiplicity of infection of 0.00025 syncytial forming units per cell. Virus adsorption was at room temperature for one hour. The cells were then washed three times and distributed in wells of a tissue culture plate at a concentration of 2×10^5 cells/well. Either DIDS, SITS or H2 DIDS (all at 100 μg/ml) were added to wells at 0, 24, 43 and 51 hours post-infection. As virus controls some wells had no drug added. Syncytia were scored at 43, 52 and 68 hours post-infection. The cell-free supernatant fluids of the virus control wells were harvested after 33, 43, 51, 68 and 75 hours post-infection. All other wells were harvested 75 hours post-infection. The supernatant fluid was then assayed for p24 viral core antigen.

HSV 2 = assay: Plaque reduction assay, HSV 2; format: cell-based
Procedure: Protocol: Plaque reduction assay. Treatment after adsorption during incubation.

[3] = system: HIV-1 strain GB8 in JM cells; assay: Established HIV-1 (GB8) infection of JM cells, post-infection addition: syncytia and p24 antigen; format: cell-based, HIV-1 (human T cell line JM); settings: 100 μg/ml
[4] = 100 μg/ml, time of addition 0 h p.i.
[5] = 100 μg/ml, time of addition 24 h p.i.
[6] = 100 μg/ml, time of addition 43h
[7] = 100 μg/ml, time of addition 43 h p.i.

CC(=O)Nc1ccc(C=Cc2ccc(N=C=S)cc2S(=O)(=O)O)c(S(=O)(=O)O)c1 [SITS, 4-acetamido-4'-isothiocyanatostilbene-2,2'-disulfonic acid]
activity in syncytial and p24 antigen assays ([1]; 100 μg/ml, C8166 cells infected with RF): inactive
activity at 50 µg/mL ([1]; Human immunodeficiency virus 1, 50 µg/mL, RF strain in C8166 cells, read-out: P24 Antigen % Virus Control (values in parenthesis)): > 100%
activity at 100 µg/mL ([1]; Human immunodeficiency virus 1, 100 µg/mL, RF strain in C8166 cells, read-out: P24 Antigen % Virus Control (values in parenthesis)): > 100%
activity at 200 µg/mL ([1]; Human immunodeficiency virus 1, 200 µg/mL, RF strain in C8166 cells, read-out: P24 Antigen % Virus Control (values in parenthesis)): > 100%
Mean Syncytia 68 hrs ([2]; 100 μg/ml, time of addition 0h): 27
P24 Antigen (75 hours post-infection) ([2]; 100 μg/ml, time of addition 0 hours): 8680 pg/mL
P24 Antigen 75 h [2, 4]: 6.7 ng/mL
Syncytia at 52h [2, 4]: 4
Syncytia at 68h [2, 4]: 27
Mean Syncytia 68 hrs ([2]; 100 μg/ml, time of addition 24h): 77
P24 Antigen (75 hours post-infection) ([2]; 100 μg/ml, time of addition 24 hours): 21669 pg/mL
P24 Antigen 75 h [2, 5]: 21.7 ng/mL
Syncytia at 52h [2, 5]: 35
Syncytia at 68h [2, 5]: 77
Mean Syncytia 51 hrs [2, 6]: 59
Mean Syncytia 68 hrs [2, 6]: As VC
P24 Antigen (75 hours post-infection) ([2]; 100 μg/ml, time of addition 43 hours): 49245 pg/mL
P24 Antigen 75 h [2, 7]: 49.3 ng/mL
Syncytia at 52h [2, 7]: 59
Syncytia at 68h [2, 7]: 80
Mean Syncytia 68 hrs ([2]; 100 μg/ml, time of addition 51h): As VC
P24 Antigen (75 hours post-infection) ([2]; 100 μg/ml, time of addition 51 hours): 53830 pg/mL
activity at 100 µg/mL ([2]; 100 μg/ml, time of addition 24 h p.i., read-out: P24 Antigen 75 h, % (drug-free medium 100%)): 18.6%
activity at 100 µg/mL ([2]; 100 μg/ml, time of addition 43 h p.i., read-out: P24 Antigen 75 h, % (drug-free medium 100%)): 42.3%
activity at 100 µg/mL ([2]; read-out: P24 Antigen 75 h, % (drug-free medium 100%), 100 μg/ml, time of addition 0 h p.i.): 7.4%
activity at 100 µg/mL ([2]; read-out: P24 Antigen (75 hours post-infection), %, 100 μg/ml, time of addition 0 hours): 7.4%
activity at 100 µg/mL ([2]; read-out: P24 Antigen (75 hours post-infection), %, 100 μg/ml, time of addition 24 hours): 18.6%
activity at 100 µg/mL ([2]; read-out: P24 Antigen (75 hours post-infection), %, 100 μg/ml, time of addition 43 hours): 42.3%
activity at 100 µg/mL ([2]; read-out: P24 Antigen (75 hours post-infection), %, 100 μg/ml, time of addition 51 hours): 47.2%
relative order of antiviral potency ([2]; established HIV-1 infections): DIDS>H2 DIDS>>SITS
anti-syncytial activity relative to virus control ([2]; established infection): no anti-syncytial activity
p24 antigen (in words) ([2]; established infection): slightly reduced
Plaque counts (HSV 2; 0.1 μg/ml, first count): 34
Plaque counts (HSV 2; 0.1 μg/ml, second count): 26
Plaque counts (HSV 2; 1 μg/ml, first count): 28
Plaque counts (HSV 2; 1 μg/ml, second count): 25
Plaque counts (HSV 2; 1 μg/ml, third count): 23
Plaque counts (HSV 2; 10 μg/ml, first count): 25
Plaque counts (HSV 2; 10 μg/ml, second count): 25
Plaque counts (HSV 2; 10 μg/ml, third count): 24
Plaque counts (HSV 2; 100 μg/ml, first count): 16
Plaque counts (HSV 2; 100 μg/ml, second count): 13
activity at 0.1 µg/mL (HSV 2; read-out: Mean % VC (plaques)): > 100%
activity at 1 µg/mL (HSV 2; read-out: Mean % VC (plaques)): 100%
activity at 10 µg/mL (HSV 2; read-out: Mean % VC (plaques)): 100%
activity at 100 µg/mL (HSV 2; read-out: Mean % VC (plaques)): 63%
Mean Syncytia 51 hrs ([3]; time of addition 0h): 4
Mean Syncytia 51 hrs ([3]; time of addition 24h): 35
